The results in this text go back to article PMC9421655, “Novel Antagonist of the Type 2 Lysophosphatidic Acid Receptor (LPA2), UCM-14216, Ameliorates Spinal Cord Injury in Mice” (Journal of Medicinal Chemistry, 2022).

A word on the Emax: it is the size of the effect at its maximum, as opposed to the concentration needed. Usually IC50 stands for the concentration that inhibits the measured activity by half. For orientation: melting point means the temperature, or range, at which the solid turns liquid.

One data set has as its target T1, LPA2 (Homo sapiens, UniProt Q9HBW0).
T1 construct: expressed in transfected cells
Description: Ca2+ mobilization assay, antagonist activity at LPA2. The data set is classed as cell-based. Also noted: Emax: dose or concentration left out as unconfirmed. The protocol:
(§1) Cells stably expressing the corresponding LPA1–3 receptor were grown as described previously.[18] Changes in intracellular calcium levels were measured by using the fluorescent calcium sensitive dye Fluo-4 NW (Invitrogen). RH7777 cells or B103 cells were plated on poly-D-lysine or collagen coated, respectively, black-wall clear-bottom 96-well plates (Corning) at a density of 50 000 cells/well and cultured overnight. The culture medium was then replaced with 100 μL of Fluo-4 NW dye loading solution containing 2.5 μM of probenecid and incubated for 30 min at 37 °C followed by an additional 30 min at rt. […] Fluorescence changes were registered in a FluoStar Optima instrument (BMG Labtech) at 525 nm using an excitation wavelength of 494 nm. […] The data presented are from two to four independent experiments carried out in triplicate or quadruplicate. Dose–response curves were generated and IC50 values calculated by nonlinear regression analysis using Prism software version 5 (GraphPad Software Inc., San Diego, CA, USA).
Figure S2. Dose response curves for compounds 13, 44, 53, 54, and 55. B103 cells stably expressing LPA2 receptor were incubated with different concentrations of the compound under study and […]
Curves were generated with PRISM software version 5 (GraphPad Software Inc, San Diego, CA, USA) using nonlinear regression analysis. Each data point corresponds to the mean±SEM of two to four independent experiments carried out in triplicate or quadruplicate.
On the technique in general: Calcium flux is commonly read through the fluorescence of an indicator in the cells.

Data set [1] is described as follows: Metabolic stability in mouse liver microsomes. In kind it is in vitro ADME. The note with it: male, CD-1, mouse, liver microsomes (pooled), 1 mg/mL protein, NADPH, 37 °C, read-out: stability (t1/2, min) MLMs. The protocol: (§2) Reactions were initiated by the addition of a suspension of mouse liver microsomes (MLMs) (male CD-1 mice pooled, Sigma-Aldrich) or human liver microsomes (HLMs) (male human pooled, Sigma-Aldrich), respectively, at a final protein concentration of 1 mg/mL. […] Aliquots of 100 μL were quenched at time zero and at seven points ranging to 2 h (MLM) or 4 h (HLM) by pouring into 100 μL of ice-cold acetonitrile. […] The relative disappearance of the compound under study over the course of the incubation was monitored by HPLC-MS using SIM mode. Concentrations were quantified by measuring the area under the peak ([M + H]^+) normalized with an internal standard and converted to the percentage of compound remaining, using the time zero peak area value as 100%. The natural logarithm of the remaining percentage versus time data for each compound was fit to a linear regression, and the slope was used to calculate the degradation half-life (t1/2).

Data set [2] in a line: Parallel artificial membrane permeability assay (PAMPA). In kind it is in vitro ADME. The conditions noted are these: pH 7.4, PAMPA, PBS pH 7.4, 5 h, rt, read-out: P (cm/s), permeability value. As for the experimental part:
These studies were carried out as previously described with minor modifications.[41],[42] The assessment of the membrane permeability of synthesized compounds and propranolol and metoprolol as reference compounds was performed in a commercially available 96-well Corning Gentest precoated PAMPA plate system (Cultek S.L.U., Spain). Prior to use, the precoated PAMPA plate system was warmed to rt for 30 min and 300 μL of 200 μM solution of tested compound in 2% DMSO in PBS (pH 7.4) were added into wells in the receiver (donor) plate. Then, 200 μL of PBS were added into wells in the filter (acceptor) plate. The filter plate was placed on the receiver plate by slowly lowering the precoated PAMPA plate until it sits on the receiver plate. The assembly was incubated at rt for 5 h, and then buffer samples were collected carefully from each plate. The final concentrations of compound in both donor and acceptor wells were analyzed by HPLC-MS and quantification was estimated by using the peak area integration normalized with an internal standard. Permeability value of the compounds was calculated using the following formula: P (cm/s) = {−ln[1 – CA(t)/Ceq]}/[A(1/VD + 1/VA)t], where A = filter area (0.3 cm^2), VD = donor well volume (0.3 mL), VA = acceptor well volume (0.2 mL), t = incubation time (s), CA(t) = compound concentration (μM) in the acceptor well at time t, CD(t) = compound concentration (μM) in donor well at time t, and Ceq = [CD(t)VD + CA(t)VA]/(VD + VA). Assays were performed in duplicate, and the compound was tested in two different plates on different days.
In general terms: PAMPA measures passive passage across an artificial lipid membrane.

A further data set addresses T2, LPA2 K278A mutant (Homo sapiens, UniProt Q9HBW0, K275A).
T2 construct: host or cells: McA-RH7777 (CRL-1601, ATCC), transient, pcDNA3.1
Nature of the data set: Ca2+ mobilization in McA-RH7777 cells transfected with LPA2 point mutant K278A. In kind it is cell-based.

Another data set addresses LPA1 (Homo sapiens, UniProt Q92633). Nature of the data set: cell-based. The conditions noted are these: maximum blockade of activation induced by 10 μM LPA (18:1) at 10 μM compound; N.E. = no effect at 10 μM. The protocol: as §1
In another data set the target is T3, LPA2 mutant R107A (Homo sapiens, UniProt Q9HBW0, R104A).
T3 construct: host or cells: McA-RH7777 (CRL-1601, ATCC), transient, pcDNA3.1
T3 sequence (Q9HBW0 whole entry R104A): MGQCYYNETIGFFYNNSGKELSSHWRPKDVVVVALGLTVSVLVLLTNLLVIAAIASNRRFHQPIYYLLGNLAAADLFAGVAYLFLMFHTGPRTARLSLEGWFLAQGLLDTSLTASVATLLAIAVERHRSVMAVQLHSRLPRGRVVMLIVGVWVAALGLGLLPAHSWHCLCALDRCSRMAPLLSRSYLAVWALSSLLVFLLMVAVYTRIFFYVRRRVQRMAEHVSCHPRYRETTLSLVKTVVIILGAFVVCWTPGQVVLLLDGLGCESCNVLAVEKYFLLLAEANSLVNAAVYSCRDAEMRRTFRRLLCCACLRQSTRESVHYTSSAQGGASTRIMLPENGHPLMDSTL
Nature of the data set: Ca2+ mobilization in McA-RH7777 cells transfected with LPA2 point mutant R107A. In kind it is cell-based. The note with it: 54 at 10 μM, 10 μM LPA.

In another data set the target is T4, LPA2 mutant Q108A (Homo sapiens, UniProt Q9HBW0, Q105A).
T4 construct: host or cells: McA-RH7777 (CRL-1601, ATCC), transient, pcDNA3.1
T4 sequence (Q9HBW0 whole entry Q105A): as the sequence (Q9HBW0 whole entry R104A) above, with A104R, Q105A counted along it
Description: Ca2+ mobilization in McA-RH7777 cells transfected with LPA2 point mutant Q108A. In kind it is cell-based. The note with it: 54 at 10 μM, 10 μM LPA.

Data set [3] in a line: Metabolic stability in human liver microsomes. The note with it: male, liver microsomes (pooled), 1 mg/mL protein, NADPH, 37 °C, read-out: stability (t1/2, min) HLMs. The data set is classed as in vitro ADME. The protocol:
as §2
In general terms: Liver microsomes are vesicles of endoplasmic reticulum, rich in cytochrome P450 enzymes.

Data set [4] relates to spinal cord injury in LPA2 null mice. Nature of the data set: Spinal cord contusion injury model in LPA2 null mice (Basso Mouse Scale). In kind it is in vivo. The conditions noted are these: 25 mg/kg i.p. daily for 10 days. As for the experimental part: Effect of i.p. injection of 54 (25 mg/kg) or vehicle on locomotor recovery in (A) C57bl/6 mice and (B) LPA2 deficient mice quantified using the 0 (absence of movement) to 9 (completely normal locomotor behavior) Basso Mouse Scale (BMS). Data are expressed as mean ± s.e.m. and correspond to seven animals per group in A and five animals per group in B. * p < 0.05 compared with vehicle-treated group (two-way repeated measures ANOVA with Bonferroni’s post hoc test for multiple comparisons).
All Surgical Procedures Were Approved by the Universitat Autònoma De Barcelona Animal Care Committee (CEEAH 4273) and followed the guidelines of the European Commission on Animal Care (EU Directive 2010/63/EU). Adult female C57Bl/6J mice (10–12 weeks old) and LPA2 null mice were anesthetized by intramuscular injection with a mixture of ketamine and xylazine (90:10 mg/kg). A laminectomy was performed at the 11th thoracic vertebrae and the exposed spinal cord was contused using the Infinite Horizon Impactor device (Precision Scientific Instrumentation) using a force of 60 kdynes. Only mice showing a spinal cord tissue displacement ranging between 450 and 550 μm were selected.

“Also recorded” adds a separate entry of the source.

LPA1, sequence (Q92633 whole entry, species assumed): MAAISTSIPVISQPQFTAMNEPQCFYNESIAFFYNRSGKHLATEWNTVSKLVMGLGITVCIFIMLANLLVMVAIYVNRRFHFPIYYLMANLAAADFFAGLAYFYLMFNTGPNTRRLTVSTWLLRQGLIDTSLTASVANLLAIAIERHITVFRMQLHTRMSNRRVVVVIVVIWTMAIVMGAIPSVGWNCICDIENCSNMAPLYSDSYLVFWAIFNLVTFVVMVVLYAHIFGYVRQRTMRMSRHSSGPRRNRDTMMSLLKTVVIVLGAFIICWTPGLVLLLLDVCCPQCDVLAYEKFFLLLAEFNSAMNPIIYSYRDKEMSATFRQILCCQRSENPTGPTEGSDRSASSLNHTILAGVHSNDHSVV
T2 sequence (Q9HBW0 whole entry K275A): as the sequence (Q9HBW0 whole entry R104A) above, with A104R, K275A counted along it
T1 sequence (Q9HBW0 whole entry, species assumed): as the sequence (Q9HBW0 whole entry R104A) above, with A104R counted along it

`Cc1[nH]nc(-c2ccc(OCc3nnn[nH]3)cc2O)c1Oc1ccc(Cl)cc1Cl` [Compound 54] returned a melting point of 180 to 182 °C. This compound came in with a maximal effect (Emax) at LPA2 of 90 ± 2%. At LPA2 (antagonism of 10 μM LPA, mean ± s.e.m.), this compound gave an IC50 of 1.9 µM. Further, the half-life at 1 μM in [1] amounted to 50 ± 6 min. For the same compound, the Papp at 5 h, 200 μM in [2] was 6.1 ×10⁻⁶ cm/s. Besides, the “functional activity at LPA2 K278A mutant” value on LPA2 K278A mutant (10 μM) is on record as “behaved as an agonist”. Besides, at LPA2 K278A mutant (at 10 μM, stimulation by 10 μM LPA normalized to 100%), the “activation of LPA2 K278A mutant” value is recorded as 75 ± 5%. Further, the “Emax (%) LPA1” value at LPA1 is “inactive and N.E”. The “agonist/antagonist activity at LPA2 R107A mutant” value on LPA2 mutant R107A is “no significant agonist nor antagonist activity”. The “agonist/antagonist activity at LPA2 Q108A mutant” value on LPA2 mutant Q108A is “no significant agonist nor antagonist activity”. Further, the half-life at 5 μM in [3] turned out to be 97 ± 15 min. Also, the “locomotor recovery after SCI (BMS)” value in data set [4] was “did not induce any significant effect; also recorded: inactive”.
